{"source": "ChEMBL document CHEMBL1697731", "about": "“Cheminformatics analysis of assertions mined from literature that describe drug-induced liver injury in different species” (Chem Res Toxicol, 2010)", "key": {"[1]": {"test_system": "Hepatotoxicity", "experiment": "Literature-mined compound from Fourches et al multi-species drug-induced liver injury (DILI) dataset, effect in rodents", "details": "rodentia"}, "[2]": {"test_system": "Hepatotoxicity", "experiment": "Literature-mined compound from Fourches et al multi-species drug-induced liver injury (DILI) dataset, effect in humans", "details": "human"}, "[3]": {"test_system": "Hepatotoxicity", "experiment": "Literature-mined compound from Fourches et al multi-species drug-induced liver injury (DILI) dataset, effect in non-rodents"}}, "data": [{"smiles": "C=C1/C(=C\\C=C2/CCC[C@]3(C)[C@@H]([C@H](C)CCCC(C)(C)O)CC[C@@H]23)C[C@@H](O)C[C@@H]1O", "note": "[CALCITRIOL]", "values": [{"measurement": "Hepatotoxicity", "setting": "[1]", "value": "drug-induced liver injury reported"}, {"measurement": "Hepatotoxicity", "setting": "[2]", "value": "drug-induced liver injury reported"}, {"measurement": "Hepatotoxicity", "setting": "[3]", "value": "no drug-induced liver injury reported"}]}, {"smiles": "CC[C@@]1(O)C(=O)OCc2c1cc1n(c2=O)Cc2cc3ccccc3nc2-1", "note": "[CAMPTOTHECIN]", "values": [{"measurement": "Hepatotoxicity", "setting": "[1]", "value": "drug-induced liver injury reported"}, {"measurement": "Hepatotoxicity", "setting": "[2]", "value": "drug-induced liver injury reported"}, {"measurement": "Hepatotoxicity", "setting": "[3]", "value": "no drug-induced liver injury reported"}]}, {"smiles": "CCOc1nc2cccc(C(=O)OC(C)OC(=O)OC3CCCCC3)c2n1Cc1ccc(-c2ccccc2-c2nnn[nH]2)cc1", "note": "(stereo unspecified) [CANDESARTAN CILEXETIL]", "values": [{"measurement": "Hepatotoxicity", "setting": "[1]", "value": "drug-induced liver injury reported"}, {"measurement": "Hepatotoxicity", "setting": "[2]", "value": "drug-induced liver injury reported"}, {"measurement": "Hepatotoxicity", "setting": "[3]", "value": "no drug-induced liver injury reported"}]}, {"smiles": "C=C(C)[C@@H]1CCC(C)=C[C@H]1c1c(O)cc(CCCCC)cc1O", "note": "[CANNABIDIOL]", "values": [{"measurement": "Hepatotoxicity", "setting": "[1]", "value": "drug-induced liver injury reported"}, {"measurement": "Hepatotoxicity", "setting": "[2]", "value": "drug-induced liver injury reported"}, {"measurement": "Hepatotoxicity", "setting": "[3]", "value": "no drug-induced liver injury reported"}]}, {"smiles": "CCCCCOC(=O)Nc1nc(=O)n([C@@H]2O[C@H](C)[C@@H](O)[C@H]2O)cc1F", "note": "[CAPECITABINE]", "values": [{"measurement": "Hepatotoxicity", "setting": "[1]", "value": "drug-induced liver injury reported"}, {"measurement": "Hepatotoxicity", "setting": "[2]", "value": "drug-induced liver injury reported"}, {"measurement": "Hepatotoxicity", "setting": "[3]", "value": "no drug-induced liver injury reported"}]}, {"smiles": "COc1cc(CNC(=O)CCCC/C=C/C(C)C)ccc1O", "note": "[CAPSAICIN]", "values": [{"measurement": "Hepatotoxicity", "setting": "[1]", "value": "drug-induced liver injury reported"}, {"measurement": "Hepatotoxicity", "setting": "[2]", "value": "drug-induced liver injury reported"}, {"measurement": "Hepatotoxicity", "setting": "[3]", "value": "no drug-induced liver injury reported"}]}, {"smiles": "C[C@H](CS)C(=O)N1CCC[C@H]1C(=O)O", "note": "[CAPTOPRIL]", "values": [{"measurement": "Hepatotoxicity", "setting": "[1]", "value": "drug-induced liver injury reported"}, {"measurement": "Hepatotoxicity", "setting": "[2]", "value": "drug-induced liver injury reported"}, {"measurement": "Hepatotoxicity", "setting": "[3]", "value": "no drug-induced liver injury reported"}]}, {"smiles": "C[N+](C)(C)CCOC(N)=O.[Cl-]", "note": "[CARBACHOL]", "values": [{"measurement": "Hepatotoxicity", "setting": "[1]", "value": "drug-induced liver injury reported"}, {"measurement": "Hepatotoxicity", "setting": "[2]", "value": "no drug-induced liver injury reported"}, {"measurement": "Hepatotoxicity", "setting": "[3]", "value": "no drug-induced liver injury reported"}]}, {"smiles": "NC(=O)N1c2ccccc2C=Cc2ccccc21", "note": "[CARBAMAZEPINE]", "values": [{"measurement": "Hepatotoxicity", "setting": "[1]", "value": "drug-induced liver injury reported"}, {"measurement": "Hepatotoxicity", "setting": "[2]", "value": "drug-induced liver injury reported"}, {"measurement": "Hepatotoxicity", "setting": "[3]", "value": "no drug-induced liver injury reported"}]}, {"smiles": "CNC(=O)Oc1cccc2ccccc12", "note": "[CARBARIL]", "values": [{"measurement": "Hepatotoxicity", "setting": "[1]", "value": "drug-induced liver injury reported"}, {"measurement": "Hepatotoxicity", "setting": "[2]", "value": "no drug-induced liver injury reported"}, {"measurement": "Hepatotoxicity", "setting": "[3]", "value": "no drug-induced liver injury reported"}]}, {"smiles": "CC1(C)S[C@@H]2[C@H](NC(=O)C(C(=O)[O-])c3ccccc3)C(=O)N2[C@H]1C(=O)[O-].[Na+].[Na+]", "note": "(stereo partly specified) [CARBENICILLIN DISODIUM]", "values": [{"measurement": "Hepatotoxicity", "setting": "[1]", "value": "no drug-induced liver injury reported"}, {"measurement": "Hepatotoxicity", "setting": "[2]", "value": "drug-induced liver injury reported"}, {"measurement": "Hepatotoxicity", "setting": "[3]", "value": "no drug-induced liver injury reported"}]}, {"smiles": "CC1(C)[C@@H](OC(=O)CCC(=O)O)CC[C@]2(C)[C@H]3C(=O)C=C4[C@@H]5C[C@@](C)(C(=O)O)CC[C@]5(C)CC[C@@]4(C)[C@]3(C)CC[C@@H]12", "note": "[CARBENOXOLONE]", "values": [{"measurement": "Hepatotoxicity", "setting": "[1]", "value": "drug-induced liver injury reported"}, {"measurement": "Hepatotoxicity", "setting": "[2]", "value": "no drug-induced liver injury reported"}, {"measurement": "Hepatotoxicity", "setting": "[3]", "value": "no drug-induced liver injury reported"}]}, {"smiles": "CCOC(=O)n1ccn(C)c1=S", "note": "[CARBIMAZOLE]", "values": [{"measurement": "Hepatotoxicity", "setting": "[1]", "value": "no drug-induced liver injury reported"}, {"measurement": "Hepatotoxicity", "setting": "[2]", "value": "drug-induced liver injury reported"}, {"measurement": "Hepatotoxicity", "setting": "[3]", "value": "no drug-induced liver injury reported"}]}, {"smiles": "CCCCNC(=O)NS(=O)(=O)c1ccc(N)cc1", "note": "[CARBUTAMIDE]", "values": [{"measurement": "Hepatotoxicity", "setting": "[1]", "value": "drug-induced liver injury reported"}, {"measurement": "Hepatotoxicity", "setting": "[2]", "value": "no drug-induced liver injury reported"}, {"measurement": "Hepatotoxicity", "setting": "[3]", "value": "no drug-induced liver injury reported"}]}, {"smiles": "CC(C)c1ccc(C(=O)NC(=N)N)cc1S(C)(=O)=O", "note": "[CARIPORIDE]", "values": [{"measurement": "Hepatotoxicity", "setting": "[1]", "value": "drug-induced liver injury reported"}, {"measurement": "Hepatotoxicity", "setting": "[2]", "value": "no drug-induced liver injury reported"}, {"measurement": "Hepatotoxicity", "setting": "[3]", "value": "no drug-induced liver injury reported"}]}, {"smiles": "CCCC(C)(COC(N)=O)COC(=O)NC(C)C", "note": "(stereo unspecified) [CARISOPRODOL]", "values": [{"measurement": "Hepatotoxicity", "setting": "[1]", "value": "drug-induced liver injury reported"}, {"measurement": "Hepatotoxicity", "setting": "[2]", "value": "no drug-induced liver injury reported"}, {"measurement": "Hepatotoxicity", "setting": "[3]", "value": "no drug-induced liver injury reported"}]}, {"smiles": "O=NN(CCCl)C(=O)NCCCl", "note": "[CARMUSTINE]", "values": [{"measurement": "Hepatotoxicity", "setting": "[1]", "value": "drug-induced liver injury reported"}, {"measurement": "Hepatotoxicity", "setting": "[2]", "value": "drug-induced liver injury reported"}, {"measurement": "Hepatotoxicity", "setting": "[3]", "value": "no drug-induced liver injury reported"}]}, {"smiles": "C[N+](C)(C)CC(O)CC(=O)[O-]", "note": "(stereo unspecified) [CARNITINE]", "values": [{"measurement": "Hepatotoxicity", "setting": "[1]", "value": "drug-induced liver injury reported"}, {"measurement": "Hepatotoxicity", "setting": "[2]", "value": "drug-induced liver injury reported"}, {"measurement": "Hepatotoxicity", "setting": "[3]", "value": "drug-induced liver injury reported"}]}, {"smiles": "CC(C(=O)O)c1ccc2c(c1)[nH]c1ccc(Cl)cc12", "note": "(stereo unspecified) [CARPROFEN]", "values": [{"measurement": "Hepatotoxicity", "setting": "[1]", "value": "no drug-induced liver injury reported"}, {"measurement": "Hepatotoxicity", "setting": "[2]", "value": "no drug-induced liver injury reported"}, {"measurement": "Hepatotoxicity", "setting": "[3]", "value": "drug-induced liver injury reported"}]}, {"smiles": "COc1ccccc1OCCNCC(O)COc1cccc2[nH]c3ccccc3c12", "note": "(stereo unspecified) [CARVEDILOL]", "values": [{"measurement": "Hepatotoxicity", "setting": "[1]", "value": "drug-induced liver injury reported"}, {"measurement": "Hepatotoxicity", "setting": "[2]", "value": "drug-induced liver injury reported"}, {"measurement": "Hepatotoxicity", "setting": "[3]", "value": "no drug-induced liver injury reported"}]}, {"smiles": "Oc1cc(O)c2c(c1)O[C@H](c1ccc(O)c(O)c1)[C@@H](O)C2", "note": "[CATECHIN]", "values": [{"measurement": "Hepatotoxicity", "setting": "[1]", "value": "drug-induced liver injury reported"}, {"measurement": "Hepatotoxicity", "setting": "[2]", "value": "drug-induced liver injury reported"}, {"measurement": "Hepatotoxicity", "setting": "[3]", "value": "drug-induced liver injury reported"}]}, {"smiles": "N[C@@H](C(=O)N[C@@H]1C(=O)N2C(C(=O)O)=C(Cl)CS[C@H]12)c1ccccc1", "note": "[CEFACLOR ANHYDROUS]", "values": [{"measurement": "Hepatotoxicity", "setting": "[1]", "value": "no drug-induced liver injury reported"}, {"measurement": "Hepatotoxicity", "setting": "[2]", "value": "drug-induced liver injury reported"}, {"measurement": "Hepatotoxicity", "setting": "[3]", "value": "no drug-induced liver injury reported"}]}, {"smiles": "CC1=C(C(=O)O)N2C(=O)[C@@H](NC(=O)[C@H](N)c3ccc(O)cc3)[C@H]2SC1", "note": "[CEFADROXIL]", "values": [{"measurement": "Hepatotoxicity", "setting": "[1]", "value": "no drug-induced liver injury reported"}, {"measurement": "Hepatotoxicity", "setting": "[2]", "value": "drug-induced liver injury reported"}, {"measurement": "Hepatotoxicity", "setting": "[3]", "value": "no drug-induced liver injury reported"}]}, {"smiles": "Cc1nnc(SCC2=C(C(=O)O)N3C(=O)[C@@H](NC(=O)Cn4cnnn4)[C@H]3SC2)s1", "note": "[CEFAZOLIN]", "values": [{"measurement": "Hepatotoxicity", "setting": "[1]", "value": "drug-induced liver injury reported"}, {"measurement": "Hepatotoxicity", "setting": "[2]", "value": "drug-induced liver injury reported"}, {"measurement": "Hepatotoxicity", "setting": "[3]", "value": "no drug-induced liver injury reported"}]}, {"smiles": "C=CC1=C(C(=O)O)N2C(=O)[C@@H](NC(=O)/C(=N\\OCC(=O)O)c3csc(N)n3)[C@H]2SC1", "note": "[CEFIXIME]", "values": [{"measurement": "Hepatotoxicity", "setting": "[1]", "value": "no drug-induced liver injury reported"}, {"measurement": "Hepatotoxicity", "setting": "[2]", "value": "drug-induced liver injury reported"}, {"measurement": "Hepatotoxicity", "setting": "[3]", "value": "no drug-induced liver injury reported"}]}, {"smiles": "CCN1CCN(C(=O)N[C@@H](C(=O)N[C@@H]2C(=O)N3C(C(=O)O)=C(CSc4nnnn4C)CS[C@H]23)c2ccc(O)cc2)C(=O)C1=O", "note": "[CEFOPERAZONE]", "values": [{"measurement": "Hepatotoxicity", "setting": "[1]", "value": "drug-induced liver injury reported"}, {"measurement": "Hepatotoxicity", "setting": "[2]", "value": "drug-induced liver injury reported"}, {"measurement": "Hepatotoxicity", "setting": "[3]", "value": "no drug-induced liver injury reported"}]}, {"smiles": "CO/N=C(\\C(=O)N[C@@H]1C(=O)N2C(C(=O)O)=C(COC(C)=O)CS[C@H]12)c1csc(N)n1", "note": "[CEFOTAXIME]", "values": [{"measurement": "Hepatotoxicity", "setting": "[1]", "value": "no drug-induced liver injury reported"}, {"measurement": "Hepatotoxicity", "setting": "[2]", "value": "drug-induced liver injury reported"}, {"measurement": "Hepatotoxicity", "setting": "[3]", "value": "no drug-induced liver injury reported"}]}]}
